Test results taken from patent publication US20260263613A1, “USE OF DRUG C[…]-CD20 ANTIBODY-DRUG CONJUGATE IN PREPARATION OF DRUG FOR TREATING NHL” (priority 2023, published 2026).
“And” between values parts separate entries of the source, which are not always exact repeats. Identical values can stand only once.

How the values were obtained:
[1] = Body weight and drug-related deaths of WSU-DLCL2 tumor-bearing animals; assay type: in vivo, SCID mouse
Method: (§1) Under sterile conditions, each SCID mouse was inoculated with 0.1 mL of WSU-DLCL2 cell suspension at a concentration of 4×10^7/mL subcutaneously on the right back. When the mean tumor volume (TV) reached ~150 mm^3, animals were randomized into 4 groups according to their TV: Group 1 (Vehicle), Group 2 (R-CHOP), Group 3 (TRS005) and Group 4 (TRS005-CHP (T-CHP)), with 6 mice in each group, so that the difference in TV of mice in each group was <10% of the mean. The day of grouping was recorded as Day 0, and the administration was started according to animal body weight (BW).
(§2) The BW and TV of animals were measured twice a week during the study. During the study, the clinical symptoms of animals were observed and recorded once a day. Clinical observations included general health status, abnormal BW and behavior of animals, and other treatment-related adverse reactions.
(§3) The animal body weight change (% BWC) is calculated as follows: (BWt−BW0)/BW0×100%, where BWt is the animal BW at each measurement and BW0 is the animal BW at grouping.
(§4) According to the Technical Guidelines for Nonclinical Study of Cytotoxic Anti-tumor Drugs (November 2006) issued by NMPA in China, it is considered effective if % T/CRTV≤40% and P<0.05 after statistical analysis. Drug doses are considered to be severely toxic when the number of animal deaths related to the drug exceeds 20%.

[2] = Body weight and drug-related deaths of OCI-LY19 tumor-bearing animals; assay type: in vivo, mouse
Method: (§5) The drug information is the same as in Embodiment 3. Under sterile conditions, each mouse was inoculated with 0.1 mL of OCI-LY19 cell suspension at a concentration of 2×10^6/mL subcutaneously on the right back. When the mean TV reached ~150 mm^3, animals were randomized into 4 groups according to their TV: Group 1 (Vehicle), Group 2 (R-CHOP), Group 3 (TRS005) and Group 4 (T-CHP), with 10 mice in each group, so that the difference in TV of mice in each group was <10% of the mean. The day of grouping was recorded as Day 0, and the administration was started according to animal BW.
(§6) The BW and TV of animals were measured twice a week during the study. During the study, the clinical symptoms of animals were observed and recorded once a day. Clinical observations included general health status, abnormal BW and behavior of animals, and other treatment-related adverse reactions. During the study, if an individual experimental animal meets any of the following conditions, the animal will be removed from the study group and euthanized. 1. The body weight loss (BWL) of animals was ≥20% compared with Day 0; 2. Animals had serious adverse reactions, such as blindness and paralysis; 3. TV was >2000 mm^3; 4. Open ulcers were formed on the tumor surface.
as §3

[3] = tested on: human lymphoma WSU-DLCL2 cell xenograft tumor; assay: Inhibition of human lymphoma WSU-DLCL2 cell xenograft tumor growth; assay type: in vivo, SCID mouse
Method: Example 3: Inhibition of Human Lymphoma WSU-DLCL2 Cell Xenograft Tumor Growth by TRS005 Alone and TRS005 in Combination with CHP Compared to R-CHOP Regimen Administration Drug Information, Model Establishment, Grouping, and Administration
The TRS005 finished product is provided by Zhejiang Teruisi Pharmaceutical Inc., and other positive drugs are commercially available. Among them, MabThera, Cyclophosphamide, Doxorubicin, Vincristine, and Prednisone are prepared with normal saline as the solvent to corresponding concentrations and stored at 4° C. away from light. The TRS005 finished product is reconstituted with sterile water for injection (WFI), and a corresponding volume of normal saline is added to prepare the corresponding concentration. The TRS005 finished product is reconstituted and packaged with WFI and stored at −70° C.
as §1, §2
(§7) The tumor growth inhibition rate (% TGI) is calculated as follows: (1−TVT/TVC)×100%, where TVC is the mean TV of the negative control group, and TVT is the mean TV of the treatment group.
(§8) Relative Tumor Volume (RTV) is calculated as Vt/V0, where V0 is the TV at grouping and Vt is the TV at each measurement.
(§9) The calculation formula for relative tumor proliferation rate (% T/CRTV) is: • TRTV/CRTV×100%, where TRTV is the RTV of the treatment group and CRTV is the RTV of the negative control group.
as §4

[4] = tested on: human lymphoma OCI-LY19 cell xenograft tumors; assay: Growth inhibition of human lymphoma OCI-LY19 cell xenograft tumors; assay type: in vivo, mouse
Method: Embodiment 4: Growth Inhibition of Human Lymphoma OCI-LY19 Cell Xenograft Tumors by TRS005 Alone and TRS005 in Combination with CHP Compared to R-CHOP Regimen Administration
as §5, §6
The calculation formula for TV is: ½×a×b^2, where a and b are the measured length and width of the tumor, respectively.
as §7, §8, §9

Q: Which results are given for “TRS005: anti-CD20 ADC; mAb is Rituximab or a biosimilar thereof, drug antibody ratio (DAR) 4.2±0.5”?
A: Body Weight of Mice (Mean ± SEM) Day 0 ([1]; Day 0 (baseline)): 20.12 ± 0.35 g; Body Weight of Mice (Mean ± SEM) Day 35 ([1]; Day 35): 20.78 ± 0.50 g; % BWC Day 35 vs Day 0 ([1]; WSU-DLCL2 tumor-bearing mice): 3.25%; Body weight change Day 35 vs Day 0 ([1]; WSU-DLCL2 tumor-bearing mice): 0.66 g; Safety / drug-related toxicity in words ([1]; WSU-DLCL2 tumor-bearing mice, during the study): good safety; Number of Mice with Drug-related Deaths Day 35 ([1]; deaths/number of mice): 0/6; Body Weight of Mice (Mean ± SEM) Day 0 ([2]; Day 0 (baseline)): 20.95 ± 0.36 g; Body Weight of Mice (Mean ± SEM) Day 14 ([2]; Day 14): 22.76 ± 0.45 g; % BWC Day 14 vs Day 0 ([2]; OCI-LY19 tumor-bearing mice): 8.96%; Body weight change Day 14 vs Day 0 (in g) ([2]; OCI-LY19 tumor-bearing mice): (1.81 g); Safety / drug-related toxicity in words ([2]; OCI-LY19 tumor-bearing mice, during the study): good safety; Number of Mice with Drug-related Deaths Day 14 ([2]; deaths/number of mice): 0/10; Anti-tumor efficacy in words ([3]; WSU-DLCL2 xenograft (high CD20 expression), compared with the other regimens): better efficacy than the R-CHOP regimen; Tumor Volume (Mean ± SEM) Day 0 ([3]; WSU-DLCL2 xenograft, Day 0 (at grouping, before dosing), 6 mice/group): 127.16 mm^3; % T/CRTV Day 35 ([3]; WSU-DLCL2 xenograft, Day 35): 17.81%; RTV Day 35 ([3]; WSU-DLCL2 xenograft, Day 35, Vt/V0): 2.44; Tumor Volume (Mean ± SEM) Day 35 ([3]; WSU-DLCL2 xenograft, Day 35, TRS005 0.75 mg/kg IV BIW × 3 w, regimens per Table 2, 0.75 mg/kg): 315.93±94.23 mm^3 and 315.93 mm^3; % TGI Day 35 ([3]; WSU-DLCL2 xenograft, Day 35, regimens per Table 2): 81.94%; Tumor Volume (Mean ± SEM) Day 0 ([4]; Day 0 (at grouping, before dosing), 10 mice/group): 107.78 mm^3; % T/CRTV Day 14 ([4]; Day 14): 48.28%; % TGI Day 14 ([4]; Day 14): 51.87%; Tumor Volume (Mean ± SEM) Day 14 ([4]; Day 14, TRS005 1.5 mg/kg IV BIW × 3 w, regimens per Table 5, 1.5 mg/kg): 905.30±129.66 mm^3 and 905.30 mm^3; RTV Day 14 ([4]; Day 14, Vt/V0): 8.29; Tumor Volume (Mean ± SEM) Day 17 ([4]; Day 17): 1182.02 mm^3; Tumor Volume (Mean ± SEM) Day 21 ([4]; Day 21, remaining mice (Group 3 N = 9)): 1764.32 mm^3; Tumor Volume (Mean ± SEM) Day 24 ([4]; Day 24, remaining mice (Group 3 N = 6)): 2274.64 mm^3; Tumor Volume (Mean ± SEM) Day 28 ([4]; Day 28, remaining mice (Group 2 N = 3, Group 3 N = 1, Group 4 N = 9)): 0.00 mm^3
